Patent publication US20220387342A1, “TRANSDERMAL PATCH” (University of Sunderland, priority 2019, published 2022)
Values after ≈ are worked out from the molar mass of the structure shown. Structures can show the parent of a compound that is named as a salt.

What was measured:
[1] = Differential scanning calorimetry: drug crystallinity and saturation in PEO films; format: physicochemical; settings: from plot of enthalpy of fusion against drug concentration, y = 0
Procedure: Differential scanning calorimetry (DSC) of NTX.base, NTX.HCl, PEO and loaded hydrogel films (irradiated and non-irradiated) may be performed with suitable DSC instruments, such as a DSC Q1000 (TA Instruments, New Castle, Del., USA). The DSC was conditioned for two hours prior to use. Samples (5-10 mg) were accurately weighed using a microbalance (Mettler-Toledo, Greifensee, Switzerland), placed in an aluminium hermetic sample pan and sealed with a hermetic lid (TA Instruments, New Castle, Del., USA). The samples were subjected to standard heat/cool/heat at a rate of 10° C./min, under a constant flow of nitrogen at a rate of 50 mL/min. Suitable settings include the following: • For NTX.base API and NTX.base loaded films, the heat/cool/heat cycle was from −80° C. to 200° C. to −80° C. to 200° C. • NTX.HCl API was heated from −80° C. to 285° C., then cooled to −80° C., and then heated for a second time to 285° C. […]
DSC analysis was performed, in accordance with the method described in the “Assays” part of the present disclosure. […] From the enthalpy of fusion values for NTX.HCl within the films, the saturation solubility of naltrexone hydrochloride within PEO was calculated by plotting enthalpy against drug concentration. […]

[2] = system: bacteria, yeasts and moulds; assay: Small scale study of microbial growth in naltrexone solutions; settings: for bacterial colony count: after 3 weeks incubation time; for microbial growth: summary b334
Procedure: This was also evidenced in a small scale study in which the microbial growth in solutions of naltrexone base and naltrexone hydrochloride were compared to a control after being stored for 25 days at 27° C. […] After 48 hours, the bacterial colony count increased to approximately 10^4 CFU/mL in the control sample and to approximately 10^2 CFU/mL in the NTX base sample. […] After 3 weeks incubation time, the bacterial colony count increased to ˜10^5 CFU/mL on the control sample, ˜10^3 CFU/mL for naltrexone base and ˜10^2 CFU/mL for naltrexone hydrochloride. Thus, a longer incubation time was required for growth of microbial colonies in the medicated samples.

[3] = Stability study: drug content of hydrogel films after storage (HPLC), shelf life estimate; format: physicochemical; settings: 0-6 months, ambient and accelerated
Procedure: The stability of the transdermal patch of the invention may be investigated over the course of 6 months under ambient (20.9±0.6° C./43±2.5% RH) and accelerated (40° C./75% RH) conditions. The patches are tested at time intervals of 0, 1, 2, 3 and 6 months to determine the extent of any physical, chemical and microbial changes that may have occurred.
Packaged pouches were either placed under ambient conditions (20.9±0.7° C./46.0±3.1% RH) or under accelerated conditions (40° C./75% RH), for 6 months with intermediate testing at 0, 1, 2, 3 and 6 months according to the protocol in Table 7.
To quantify the amount of drug present at each time point, hydrogel films were removed from each patch (n=3) at 0, 1, 3 and 6 months and dissolved in 5 mL 80% v/v acetonitrile for 16 hours at 30° C. in an Elmasonic S 30 H sonicating water bath (Elma Schmidbauer, Singen, Germany). After 16 hours, the samples were filtered using 0.2 μm Whatman syringeless filters vials with nylon filter media and polypropylene housing (GE Healthcare UK Ltd., Little Chalfont, Buckinghamshire, UK) and injected in triplicate to the HPLC.
Based on the drug content of the hydrogels only, a shelf life may be predicted by extrapolating the data and calculating how long it would take to reach 90% of the stated dose. […]

[4] = tertiary aliphatic nitrogen; cited from earlier work
[5] = cited from earlier work
[6] = system: bacteria, moulds and yeasts; assay: Stability study: microbiology of patches (Mikrocount duo dipslides); settings: storage up to 6 months, ambient and accelerated
Procedure: Mikrocount® duo dipslides (Schulke & Mayr GmbH, Norderstedt, Germany) were used to determine total plate count and to detect presence of moulds and yeasts. The surface of each side of the dipslide was placed in contact with the hydrogel surface of the patch for 5 seconds. The dipslides were then placed in their sealed container and incubated for 72 hours at 27±1° C. Once incubated, the dipslides were compared to images within the Mikrocount® brochure to evaluate the colony forming units per cm^2.

For `O=C1CC[C@@]2(O)[C@H]3Cc4ccc(O)c5c4[C@@]2(CCN3CC2CC2)[C@H]1O5` [naltrexone hydrochloride], the “maximum drug loading before crystals are loaded to the film (saturation solubility within PEO)” value [1] was 4.40 % w/w, the bacterial colony count ([2]; solutions, hydrochloride) was “approximately 10^2 CFU/mL” and the bacterial growth ([2]; solutions, after 72 hours) was “Negligible bacterial growth”. The microbial growth ([2]; solutions, hydrochloride) was “approximately 10^2 CFU/mL”.

For `O=C1CC[C@@]2(O)[C@H]3Cc4ccc(O)c5c4[C@@]2(CCN3CC2CC2)[C@H]1O5` [naltrexone base, 17-(Cyclopropylmethyl)-4,5α-epoxy-3,14-dihydroxymorphinan-6-one], the “degradation of naltrexone under storage (HPLC chromatograms)” value [3] was “did not degrade under storage into any other compounds”, the yeasts or moulds ([2]; any incubation time point) was “No yeasts or moulds were detected” and the bacterial colony count ([2]; solutions) was ~10^3 CFU/mL. The microbial growth ([2]; solutions) was “approximately 10^3 CFU/mL”, the pKa [4] was 8.3 and the aqueous solubility [5] was 0.51 mg/mL (≈ 1490 µM).

In the case of `CC(O)CO` (centres unmarked) [propylene glycol], the “microbial growth on patches” value [6] is reported as “prevented bacteria, yeast and mould from growing at all throughout the study”.
